Results published in patent US5616575A (priority 1995, dated 1997).
Entries after “also recorded” stand apart in the source; their conditions may differ.

Experiments:
[1] = fighting mice; cited from earlier work
[2] = rodents; cited from earlier work
[3] = humans; cited from earlier work
kappa-1 receptor [4] = experiment: Preliminary screening, binding at the kappa-1 receptor; details: in words
Procedure: To assess the potential addiction-interrupting effects of the newly synthesized iboganoids, compounds 7a,b,c were tested for binding at the 5-HT transporter and the […] and kappa-2 opiate receptors, molecular targets known to modulate mesolimbic dopaminergic function.

5-HT transporter = biological target: T1, 5-HT transporter (Homo sapiens, UniProt P31645); experiment: Full competition experiments at the 5-HT transporter in human occipital cortex ([125I]RTI55); assay type: binding; details: for relative potency at the 5-HT transporter: comparison with ibogaine or noribogaine, in words; for IC50 / nH: human occipital cortex, mean ± S.D.; for IC50: 0.01 nM [125I]RTI55, 1 μM benztropine, 25° C., two determinations in triplicate; for nH: 0.01 nM [125I]RTI55
T1 construct: from tissue; host or cells: human occipital cortex membranes
Procedure: ^a Membranes isolated from human occipital cortex were incubated for
hr at 25° C., in the presence of 1 μM benztropine, with 0.01 nM
[^125 I]RTI55 and varying concentrations of the respective compounds.
Data analysis was performed with EBDA (DRUG). The data presented are the
mean ± S.D. of two independent determinations conducted in triplicate,
nonspecific binding was evaluated using 50 μm-cocaine. (See, J.K.
Staley et al., J. Neurochem., 62, 549 (1994)).

kappa-1 receptor [5] = biological target: T2, kappa-1 receptor (Homo sapiens, UniProt P41145); experiment: Competition binding at the kappa-1 receptor of human insular cortex ([3H]U693593); details: for IC50: IC50, human insular cortex; for IC50 / nH: mean ± S.D.; for relative potency at the kappa-1 receptor: comparison with ibogaine, in words; for nH: human insular cortex
T2 construct: from tissue; host or cells: human insular cortex membranes
Procedure: Data analysis was performed with EBDA (DRUG); NS = nonspecific
The data presented are the mean ± S.D. of two independent

[6] = In vivo evaluation, behavior of rats after injection; details: for tremorigenic effect relative to ibogaine: comparison in words with ibogaine at 40 mg/kg; for tremors: 7a 100 μmol/kg; for tremors / locomotor activity and ataxia / behavioral symptoms: 7b comparable dose; for locomotor activity and ataxia / behavioral symptoms: injection, 7a and 7c 100 μmol/kg, 7d 150 μmol/kg
Procedure: Onset of symptoms was evident within 2 minutes, and the effects were most severe by 5 min. Signs of recovery became evident by 40 min post-injection and the animals appeared fully recovered after 60 min. Mild tremors were observed between 3 and 8 min post-injection.

[7] = test system: dopamine levels in the nucleus accumbens and striatum; details: nucleus accumbens and striatum (ibogaine: striatum); cited from earlier work
[8] = mice; cited from earlier work
[9] = dogs and rabbits; cited from earlier work
[10] = cats; cited from earlier work
[11] = humans; cited from earlier work; remark: listed apart in the source
[12] = other animals; cited from earlier work
NMDA receptor = NMDA receptor binding in human caudate (FIG. 3A); details: comparison in words
Procedure: The affinity of compounds 7a-c for the NMDA receptor was measured in human brain tissue employing the methodology of P. Popik et al., Psychopharmacol., 114, 672 (1994).

[13] = rats, 100 μmol/kg, post-injection

With `Cn1c2c(c3ccccc31)CCNCC2` [6-methyl-1,2,3,4,5,6-hexahydroazepino[4,5-b]indole] as the molecule, how does the aggressive behavior [1] read?
The aggressive behavior was “antagonize aggressive behavior in fighting mice”.

What about the conditioned avoidance [2] of the same molecule?
Its conditioned avoidance is “block conditioned avoidance”.

And the “hypothermia and anorexigenic behavior” value [2]?
The value was “induce hypothermia and anorexigenic behavior in rodents”.

What about the neuroleptic activity [3] of the same molecule?
Its neuroleptic activity is “did not exhibit neuroleptic activity in humans”.

With `CCN1CCc2c(sc3ccccc23)C(c2ccccc2)C1` (stereo not shown) [Compound 7a, 3-Ethyl-5-phenyl-1,2,3,4,5-pentahydroazepino[4,5-b]benzothiophene] as the molecule, how does the “activity/affinity at the kappa-1 receptor” value (kappa-1 receptor [4]) read?
The value was “some activity”.

What about the “relative potency at the 5-HT transporter” value (5-HT transporter) of the same molecule?
Its value is “two- to threefold more potent than ibogaine”.

What about the IC50 (5-HT transporter) of the same molecule?
Its IC50 is 0.21 ± 0.01 µM.

What about the nH (5-HT transporter) of the same molecule?
Its nH is 1.0 ± 0.1.

What about the IC50 (kappa-1 receptor [5]; NS = 10 μM Naloxone) of the same molecule?
The IC50 was 17.2 ± 3.18 µM.

What about the IC50 (kappa-1 receptor [5]; NS, Computer-derived) of the same molecule?
The IC50 was 10.1 ± 2.01 µM.

And the “relative potency at the kappa-1 receptor” value (kappa-1 receptor [5])?
Its value is “essentially equipotent with ibogaine”.

What about the nH (kappa-1 receptor [5]; NS = 10 μM Naloxone) of the same molecule?
The nH was 0.5 ± 0.0.

What about the nH (kappa-1 receptor [5]; NS, Computer-derived) of the same molecule?
Its nH is 1.3 ± 0.1.

And the “tremorigenic effect relative to ibogaine” value [6]?
Its value is “much less tremorigenic than ibogaine”.

And the breathing ([6]; rats, 100 μmol/kg)?
The breathing was “Breathing appeared labored”.

What about the onset of symptoms ([6]; rats, 100 μmol/kg) of the same molecule?
Its onset of symptoms is no more than 2 min.

And the tail posture ([6]; rats, 100 μmol/kg)?
The tail posture was “the tail remained outstretched and limp”.

What about the “time at which effects were most severe” value ([6]; rats, 100 μmol/kg) of the same molecule?
Its value is no more than 5 min.

What about the “time at which signs of recovery became evident” value [6, 13] of the same molecule?
The value was no more than 40 min.

And the “time to full recovery” value [6, 13]?
The value was 60 min.

And the tremors ([6]; rats)?
The tremors was “Mild tremors”.

And the “locomotor activity and ataxia / behavioral symptoms” value ([6]; rats)?
The value was “severe reduction in locomotor activity and ataxia”.

Which dopamine levels [7] does the source give for R-ibogamine [R-ibogaine] here?
The dopamine levels was “reduced dopamine levels in the nucleus accumbens and striatum”.

Which antidepressant activity [8] does the source give for `CN1CCc2c([nH]c3ccccc23)C(c2ccccc2)C1` (stereo not shown) [3-methyl-5-phenyl-1,2,3,4,5,6-hexahydroazepino[4,5-b]indole] here?
The antidepressant activity was “displayed antidepressant activity”.

Which dopamine levels [7] does the source give for `CC[C@H]1C[C@@H]2CN3CCc4c([nH]c5ccccc45)[C@](C(=O)OC)(C2)[C@H]13` [R-coronaridine] here?
Its dopamine levels is “reduced dopamine levels in the nucleus accumbens and striatum”.

With `CCC1CC2CC3c4[nH]c5ccc(O)cc5c4CCN(C2)C13` (stereo not shown) [Noribogaine, 12-hydroxyibogamine, reference compound] as the molecule, how does the nH (5-HT transporter) read?
Its nH is 0.78 ± 0.06.

What about the IC50 (kappa-1 receptor [5]; 0.3 nM [3H]U693593, 1 hr, 25° C., NS definition not stated in line) of the same molecule?
Its IC50 is 4.24 ± 0.28 µM.

What about the nH (kappa-1 receptor [5]; NS definition not stated in line) of the same molecule?
The nH was 1.1 ± 0.1.

Which “reversal of the reduction in locomotor activity induced by 7b” value ([6]; rats, cocaine 10 mg/kg ip, injected 10 min after 7b) does the source give for `COC(=O)[C@H]1[C@@H](OC(=O)c2ccccc2)C[C@@H]2CC[C@H]1N2C` [cocaine, reference compound] here?
Its value is “reversed the reduction in locomotor activity induced by 7b”.

For `c1ccc(C2CNCCc3c2[nH]c2ccccc32)cc1` (stereo not shown) [5-phenyl-1,2,3,4,5,6-hexahydroazepino[4,5-b]indole], which antidepressant activity [8] is on record?
The antidepressant activity was “displayed antidepressant activity”.

Which “excitatory effects and local anesthetic activity” value [9] does the source give for `CC[C@H]1C[C@H]2C[C@H]3c4[nH]c5ccc(OC)cc5c4CCN(C2)[C@@H]13` [Ibogaine, ibogaine] here?
Its value is “unusual excitatory effects and local anesthetic activity”.

And the psychostimulant effects [10]?
Its psychostimulant effects is “psychostimulant which caused phobia, ataxia and tremors in cats”.

And the “craving / drug-free status” value [11]?
The value was “some addicts reported alleviation or cessation of craving, and a few remained drug-free for several years thereafter; also recorded: effective in reducing craving in some humans while others were unaffected”.

And the “number of doses required for comparable effects” value [12]?
The value was “up to three doses”.

What about the dopamine levels [7] of the same molecule?
Its dopamine levels is “reduce dopamine levels in the striatum”.

Which results are given for `CCN1CCc2c(sc3ccccc23)C(c2cccc(Br)c2)C1` (stereo not shown) [Compound 7c, 3-Ethyl-5-(3-bromophenyl)-1,2,3,4,5-pentahydroazepino[4,5-b]benzothiophene]?
relative potency at the NMDA site (NMDA receptor): equipotent with ibogaine; also recorded: about fivefold more potent than 7a,b and noribogaine; activity/affinity at the kappa-1 receptor (kappa-1 receptor [4]): some activity; relative potency at the 5-HT transporter (5-HT transporter): essentially equipotent with the naturally occurring compound; IC50 (5-HT transporter): 0.82 ± 0.16 µM; nH (5-HT transporter): 1.2 ± 0.2; IC50 (kappa-1 receptor [5]; NS = 10 μM Naloxone): 117 ± 14.5 µM; IC50 (kappa-1 receptor [5]; NS, Computer-derived): 49 ± 0.96 µM; relative potency at the kappa-1 receptor (kappa-1 receptor [5]): significantly less potent; nH (kappa-1 receptor [5]; NS = 10 μM Naloxone): 0.6 ± 0.1; nH (kappa-1 receptor [5]; NS, Computer-derived): 0.9 ± 0.1; locomotor activity and ataxia / behavioral symptoms ([6]; rats): No effects were observed

With `CCN1CCc2c(sc3ccccc23)C(c2cccc([N+](=O)[O-])c2)C1` (stereo not shown) [Compound 7b, 3-Ethyl-5-(3-nitrophenyl)-1,2,3,4,5-pentahydroazepino[4,5-b]benzothiophene] as the molecule, how does the “activity/affinity at the kappa-1 receptor” value (kappa-1 receptor [4]) read?
Its value is “poor affinity”.

And the “relative potency at the 5-HT transporter” value (5-HT transporter)?
The value was “two- to threefold more potent than ibogaine”.

And the IC50 (5-HT transporter)?
The IC50 was 0.26 ± 0.06 µM.

What about the nH (5-HT transporter) of the same molecule?
The nH was 1.0 ± 0.2.

What about the “tremorigenic effect relative to ibogaine” value [6] of the same molecule?
Its value is “much less tremorigenic than ibogaine”.

And the tremors ([6]; rats)?
The tremors was “no tremors were observed”.
